Reference: patent US20220218664A1, “DRUG AND METHOD FOR TREATING OR PREVENTING COMPLICATIONS FROM DIABETES, USING SAID DRUG” (TMS Co., Ltd., priority 2019, published 2022)
Values joined by “and” are separate entries in the source; they are usually repeats but may differ in a detail not shown here. Equal values may be shown once.

Experiments:
[1] = Body weight (BW) in streptozotocin-induced diabetic mice; assay type: in vivo, C57BL/6J male mice
Protocol: (§1) 9-week-old C57BL/6J male mice were purchased and familiarized with an animal facility for 1 week. 200 mg/kg of streptozotocin (streptozotocin; STZ) was administered […] into the peritoneal cavity of 10-week-old mice to prepare streptozotocin-induced diabetic mice (hereinafter also referred to as “STZ administration week 0”). One week after the administration of streptozotocin, blood was collected from the tail vein of the mice, and the blood glucose level (BS) was measured using an automatic blood glucose measuring device (product name: Medisafe (trademark) Mini GR-102, made by Terumo (Co)). Mice having a blood glucose level of 400 mg/dL or more were determined to be diabetic mice.
(§2) The SMTP-44D groups, the edaravone group, and the pregabalin group were administered SMTP-44D (0.3 mg/kg, 3 mg/kg, or 30 mg/kg doses, respectively), edaravone (10 mg/kg dose), or pregabalin (10 mg/kg dose) into the peritoneal cavity once a day for 3 consecutive weeks from the day following the first week to the fourth week after STZ administration.
For the above-mentioned STZ group, SMTP-44D groups, edaravone group, pregabalin group, and control group mice, the following measurements were conducted every week from the 0th week, which began on the day when streptozotocin (STZ) was administered, to the 4th week (that is, a total of five times). As algesia tests, the following von Frey test and hot plate test were conducted, and hind plantar blood flow, body weight (BW), and blood glucose level (BS) were measured using the above-mentioned automatic blood glucose measure device. Note, for example, the 0th week represents the 0th day. That is, the measurements were conducted on the 0th, 7th, 14th, 21st, and 28th days.

[2] = tested on: streptozotocin-induced diabetic mice; assay: Hot plate test: evaluating thermal stimulus; assay type: in vivo, C57BL/6J male mice
Protocol: as §1, §2
The above-mentioned STZ group, SMTP-44D groups, edaravone group, pregabalin group, and control group mice were put in grid-like boxes, respectively, and were left for 30 minutes. After having been left, an acrylic disc (diameter: 20 cm; height (that is, thickness of the acrylic disc): […]) was placed on an EC hot plate (model number: EC1200) maintained at 49 to 50° C., and the mice were put on the acrylic disc. The measurements were started after the mice landed on the EC hot plate. The times from the mice landing to their action to jump or lick their hind legs were evaluated as thermal thresholds (seconds: s). Note, to avoid burns on their plantae, the measurements were ceased 30 seconds after beginning. The measurements were conducted three times at 30-minute intervals. A mean value of three thermal thresholds (seconds: s) was calculated for 1 mouse, and then a mean value of the 12 mice for the respective groups was found.

[3] = tested on: streptozotocin-induced diabetic mice; assay: Sciatic nerve blood flow; assay type: in vivo, C57BL/6J male mice; details: 4th week
Protocol: as §1, §2
(§3) Sciatic nerves of the above-mentioned STZ group, SMTP-44D groups, edaravone group, pregabalin group, and control group mice on the 4th week were exposed under isoflurane anesthesia, and then, using the full-field laser perfusion imager, their sciatic nerve blood flows (perfusion unit: PU) were measured. After the sciatic nerve blood flows were measured, a voltage was output from a PowerLab through the […] to impart an electrical stimulus to the sciatic nerves using needle electrodes. The electrical stimulus went through the Analog Stimulus Isolator via recording electrodes attached to the gastrocnemius and was input into the PowerLab, and thus neuromuscular function response curves were measured. The sciatic nerves were stimulated between two points at 8-mm intervals. The sciatic nerve conduction velocity (m/s) was calculated by dividing the […]. The sciatic nerve blood flow and sciatic nerve conduction velocity were measured using a Hot-1 small-sized heating controller and small-sized body temperature retention device (model number: […]-1), maintaining the rectal temperature at 37° C. The measurement results are described in Table 11.

[4] = tested on: streptozotocin-induced diabetic mice; assay: Sciatic nerve conduction velocity; assay type: in vivo, C57BL/6J male mice; details: 4th week
Protocol: as §1, §2, §3

[5] = Body weight in diabetic nephropathy model mice; assay type: in vivo, Male db/db mice; details: 30 mg/kg i.p. once every two days for 10 weeks; 16 weeks old
[6] = tested on: diabetic nephropathy model mice; assay: Blood glucose level in diabetic nephropathy model mice; assay type: in vivo, Male db/db mice; details: 30 mg/kg i.p. once every two days for 10 weeks; 16 weeks old
[7] = tested on: diabetic nephropathy model mice; assay: Urine volume (24 h, metabolic cage); assay type: in vivo, Male db/db mice; details: 30 mg/kg i.p. once every two days for 10 weeks; 16 weeks old; 24 h urine
[8] = tested on: diabetic nephropathy model mice; assay: Urinary albumin; details: 30 mg/kg i.p. once every two days for 10 weeks; 16 weeks old
[9] = tested on: diabetic nephropathy model mice; assay: Serum creatinine; details: 30 mg/kg i.p. once every two days for 10 weeks; 16 weeks old
[10] = 10 mg/kg i.p. once a day, 0th week (before dosing)
[11] = 10 mg/kg i.p. once a day, 0th week (before dosing), listed as edaravone
[12] = 10 mg/kg i.p. once a day, 1st week (before dosing)
[13] = 10 mg/kg i.p. once a day, 1st week (before dosing), listed as edaravone
[14] = 10 mg/kg i.p. once a day, 2nd week
[15] = 10 mg/kg i.p. once a day, 2nd week, listed as edaravone
[16] = 10 mg/kg i.p. once a day, 3rd week
[17] = 10 mg/kg i.p. once a day, 3rd week, listed as edaravone
[18] = 10 mg/kg i.p. once a day, 4th week
[19] = 10 mg/kg i.p. once a day, 4th week, listed as edaravone
[20] = 10 mg/kg i.p. once a day, listed as edaravone
[21] = 10 mg/kg i.p. once a day, 0th week (before dosing), listed as pregabalin
[22] = 10 mg/kg i.p. once a day, 1st week (before dosing), listed as pregabalin
[23] = 10 mg/kg i.p. once a day, 2nd week, listed as pregabalin
[24] = 10 mg/kg i.p. once a day, 3rd week, listed as pregabalin
[25] = 10 mg/kg i.p. once a day, 4th week, listed as pregabalin
[26] = 10 mg/kg i.p. once a day, listed as pregabalin
[27] = 30 mg/kg i.p. once a day, 0th week (before dosing)
[28] = 30 mg/kg i.p. once a day, 1st week (before dosing)
[29] = 30 mg/kg i.p. once a day, 3rd week
[30] = 30 mg/kg i.p. once a day, 4th week

## CC1=NN(c2ccccc2)C(=O)C1 [Edaravone, edaravone]
[1]; 10 mg/kg i.p. once a day
  Body weight decrease between the 0th week and 4th week: 2.4 g
[1]; [10]
  BW (body weight): 23.4 ± 0.3 g
[1]; [11]
  BW (body weight): 23.4 ± 0.3 g
[1]; [12]
  BW (body weight): 21.9 ± 0.4 g
[1]; [13]
  BW (body weight): 21.9 ± 0.4 g
[1]; [14]
  BW (body weight): 21.6 ± 0.4 g
[1]; [15]
  BW (body weight): 21.6 ± 0.4 g
[1]; [16]
  BW (body weight): 21.3 ± 0.5 g
[1]; [17]
  BW (body weight): 21.3 ± 0.5 g
[1]; [18]
  BW (body weight): 21.0 ± 0.5 g
[1]; [19]
  BW (body weight): 21.0 ± 0.5 g
[2]; [10]
  Hot plate test thermal threshold: 20.8 ± 0.5 s
[2]; [11]
  Hot plate test thermal threshold: 20.8 ± 0.5 s
[2]; [12]
  Hot plate test thermal threshold: 15.7 ± 0.8 s
[2]; [13]
  Hot plate test thermal threshold: 15.7 ± 0.8 s
[2]; [14]
  Hot plate test thermal threshold: 15.5 ± 1.2 s
[2]; [15]
  Hot plate test thermal threshold: 15.5 ± 1.2 s
[2]; [16]
  Hot plate test thermal threshold: 15.4 ± 0.9 s
[2]; [17]
  Hot plate test thermal threshold: 15.4 ± 0.9 s
[2]; [18]
  Hot plate test thermal threshold: 16.0 ± 0.8 s
[2]; [19]
  Hot plate test thermal threshold: 16.0 ± 0.8 s
[3]; 10 mg/kg i.p. once a day
  Sciatic nerve blood flow: 1336.1 ± 46.7 PU
[3]; [20]
  Sciatic nerve blood flow: 1336.1±46.7 PU
[4]; 10 mg/kg i.p. once a day
  Sciatic nerve conduction velocity: 63.6 ± 1.8 m/s
[4]; [20]
  Sciatic nerve conduction velocity: 63.6±1.8 m/s

## CC(C)C[C@H](CN)CC(=O)O [Pregabalin, pregabalin]
[1]; 10 mg/kg i.p. once a day
  Body weight decrease between the 0th week and 4th week: 1.4 g
[1]; [10]
  BW (body weight): 21.8 ± 0.3 g
[1]; [21]
  BW (body weight): 21.8 ± 0.3 g
[1]; [12]
  BW (body weight): 21.4 ± 0.3 g
[1]; [22]
  BW (body weight): 21.4 ± 0.3 g
[1]; [14]
  BW (body weight): 21.3 ± 0.4 g
[1]; [23]
  BW (body weight): 21.3 ± 0.4 g
[1]; [16]
  BW (body weight): 21.0 ± 0.2 g
[1]; [24]
  BW (body weight): 21.0 ± 0.2 g
[1]; [18]
  BW (body weight): 20.4 ± 0.2 g
[1]; [25]
  BW (body weight): 20.4 ± 0.2 g
[2]; [10]
  Hot plate test thermal threshold: 22.2 ± 0.8 s
[2]; [21]
  Hot plate test thermal threshold: 22.2 ± 0.8 s
[2]; [12]
  Hot plate test thermal threshold: 15.7 ± 0.7 s
[2]; [22]
  Hot plate test thermal threshold: 15.7 ± 0.7 s
[2]; [14]
  Hot plate test thermal threshold: 17.3 ± 1.1 s
[2]; [23]
  Hot plate test thermal threshold: 17.3 ± 1.1 s
[2]; [16]
  Hot plate test thermal threshold: 17.7 ± 0.9 s
[2]; [24]
  Hot plate test thermal threshold: 17.7 ± 0.9 s
[2]; [18]
  Hot plate test thermal threshold: 17.9 ± 1.1 s
[2]; [25]
  Hot plate test thermal threshold: 17.9 ± 1.1 s
[3]; 10 mg/kg i.p. once a day
  Sciatic nerve blood flow: 1114.1 ± 27.5 PU
[3]; [26]
  Sciatic nerve blood flow: 1114.1±27.5 PU
[4]; 10 mg/kg i.p. once a day
  Sciatic nerve conduction velocity: 55.9 ± 1.4 m/s
[4]; [26]
  Sciatic nerve conduction velocity: 55.9±1.4 m/s

## CC(C)=CCCC(C)=CCCC1(C)Oc2c(c(O)cc3c2CN(C(C(=O)O)c2ccc(O)cc2)C3=O)CC1O (stereo not drawn) [SMTP-44D]
[1]; 30 mg/kg i.p. once a day
  Body weight decrease between the 0th week and 4th week: 1.5 g
[1]; [27]
  BW (body weight): 23.0 ± 0.4 g
[1]; [28]
  BW (body weight): 21.7 ± 0.5 g
[1]; [29]
  BW (body weight): 21.3 ± 0.6 g
[1]; [30]
  BW (body weight): 21.5 ± 0.5 g
[2]; 0.3 mg/kg i.p. once a day, 0th week (before dosing)
  Hot plate test thermal threshold: 22.8 ± 1.2 s
[2]; 0.3 mg/kg i.p. once a day, 1st week (before dosing)
  Hot plate test thermal threshold: 14.3 ± 1.0 s
[2]; 0.3 mg/kg i.p. once a day, 2nd week
  Hot plate test thermal threshold: 14.0 ± 1.4 s
[2]; 0.3 mg/kg i.p. once a day, 3rd week
  Hot plate test thermal threshold: 13.3 ± 1.3 s
[2]; 0.3 mg/kg i.p. once a day, 4th week
  Hot plate test thermal threshold: 13.1 ± 0.6 s
[2]; 3 mg/kg i.p. once a day, 0th week (before dosing)
  Hot plate test thermal threshold: 21.0 ± 1.3 s
[2]; 3 mg/kg i.p. once a day, 1st week (before dosing)
  Hot plate test thermal threshold: 14.6 ± 1.4 s
[2]; 3 mg/kg i.p. once a day, 2nd week
  Hot plate test thermal threshold: 15.4 ± 0.8 s
[2]; 3 mg/kg i.p. once a day, 3rd week
  Hot plate test thermal threshold: 15.1 ± 1.1 s
[2]; 3 mg/kg i.p. once a day, 4th week
  Hot plate test thermal threshold: 15.1 ± 1.3 s
[2]; [27]
  Hot plate test thermal threshold: 21.3 ± 0.4 s
[2]; [28]
  Hot plate test thermal threshold: 15.0 ± 0.7 s
[2]; 30 mg/kg i.p. once a day, 2nd week
  Hot plate test thermal threshold: 18.0 ± 1.2 s
[2]; [29]
  Hot plate test thermal threshold: 18.4 ± 1.3 s
[2]; [30]
  Hot plate test thermal threshold: 18.2 ± 1.1 s
[3]; 0.3 mg/kg i.p. once a day
  Sciatic nerve blood flow: 1116.9±30.4 PU
[3]; 3 mg/kg i.p. once a day
  Sciatic nerve blood flow: 1187.1±31.4 PU
[3]; 30 mg/kg i.p. once a day
  Sciatic nerve blood flow: 1461.0±55.0 PU
[4]; 0.3 mg/kg i.p. once a day
  Sciatic nerve conduction velocity: 54.9±1.2 m/s
[4]; 3 mg/kg i.p. once a day
  Sciatic nerve conduction velocity: 56.9±2.8 m/s and 56.9 ± 28 m/s
[4]; 30 mg/kg i.p. once a day
  Sciatic nerve conduction velocity: 63.8±2.0 m/s
[5]
  Body weight compared to the DN group: No significant changes
[6]
  Blood glucose levels compared to the DN group: No significant changes
[7]
  Urine volume: 1268.3 ± 137.4 µL
[8]
  Urinary albumin: 0.3 ± 0.1 mg/h/kg
[9]
  Serum creatinine: 0.4 ± 0.1 mg/dL
